From patent publication US9914723B2, “Small molecule inhibitors of Mcl-1 and uses thereof” (THE REGENTS OF THE UNIVERSITY OF MICHIGAN, priority 2012, dated 2018)

What was measured:
Mcl-1 [1] = biological target: T1, Mcl-1 (Homo sapiens, UniProt Q07820); settings: cited from earlier work
Mcl-1 [2] = biological target: T1, Mcl-1; experiment: fluorescence polarizing binding assay, binding to Mcl-1; settings: for IC50: fluorescence polarizing binding assay; for fold decrease of binding affinity to Mcl-1: in comparison with UMI-1033; for binding / inhibition of Mcl-1 compared with UMI-1033, in words: 4-methyl-1-piperazinyl group of UMI-1033 replaced
Method: FIGS. 1, 2, 3, and 4 show various compounds for Formula I having various R1, R2, R3, R4, R5, R6, R7 and R8 groups, and related structure activity relationship (SAR) for each respective compound (IC50 values were determined with fluorescence polarizing binding assay).

HL-60 = experiment: Cellular activity against leukemia human tumor cell lines: HL-60; assay type: cell-based; settings: AML-derived cell line
Method: (§1) Acute myeloid leukemia (AML) frequently relapses after initial treatment. Drug resistance in AML has been attributed to high levels of the anti-apoptotic Bcl-2 family proteins. Indeed, Mcl-1 is essential for development and survival of acute myelogenous leukemia cells. Therefore the cellular activity of Mcl-1 inhibitors against AML human cancer cell lines was tested. Blockade of Mcl-1 by these inhibitors (see Table 3) killed AML-derived cell lines, HL-60 and MV4-11, but had less impact on the human CML-derived (K562) cell line.

Bcl-w = biological target: T2, Bcl-w (Homo sapiens, UniProt Q92843); experiment: Binding affinity against Bcl-2 family anti-apoptotic proteins: Bcl-w
T2 sequence (Q92843 1-193): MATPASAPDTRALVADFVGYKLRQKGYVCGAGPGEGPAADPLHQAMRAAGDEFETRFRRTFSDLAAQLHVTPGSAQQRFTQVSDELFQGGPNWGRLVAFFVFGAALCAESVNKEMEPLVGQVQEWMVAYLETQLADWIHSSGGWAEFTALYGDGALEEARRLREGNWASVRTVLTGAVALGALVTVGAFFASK

A1 = biological target: T3, A1 (Homo sapiens, UniProt Q16548); experiment: Binding affinity against Bcl-2 family anti-apoptotic proteins: A1
T3 sequence (Q16548 1-175): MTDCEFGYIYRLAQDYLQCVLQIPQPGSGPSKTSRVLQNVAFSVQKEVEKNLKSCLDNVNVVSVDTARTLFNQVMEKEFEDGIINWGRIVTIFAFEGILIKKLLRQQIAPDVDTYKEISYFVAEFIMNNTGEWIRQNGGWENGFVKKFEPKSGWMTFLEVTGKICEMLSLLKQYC

[3] = biological target: T4, cellular, endogenous Mcl-1 protein (Homo sapiens, UniProt Q07820); experiment: Pull-down assay with biotin-labeled Noxa BH3 peptide (BL-Noxa) in 2LMP cell lysate; assay type: binding
T4 construct: endogenous in cells; host or cells: 2LMP cancer cell line (lysate)
T4 sequence (Q07820 whole entry): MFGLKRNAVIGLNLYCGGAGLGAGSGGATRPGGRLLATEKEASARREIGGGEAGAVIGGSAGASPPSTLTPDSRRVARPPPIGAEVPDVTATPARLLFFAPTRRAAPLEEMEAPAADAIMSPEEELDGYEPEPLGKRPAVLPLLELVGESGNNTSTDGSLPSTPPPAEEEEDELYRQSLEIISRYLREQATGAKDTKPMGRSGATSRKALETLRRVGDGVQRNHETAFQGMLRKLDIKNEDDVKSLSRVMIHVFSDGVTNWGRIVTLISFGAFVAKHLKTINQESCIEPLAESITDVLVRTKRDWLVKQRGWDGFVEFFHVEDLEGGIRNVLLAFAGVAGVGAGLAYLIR

Bcl-2 = Bcl-2 (Homo sapiens, UniProt P10415); experiment: Binding affinity against Bcl-2 family anti-apoptotic proteins: Bcl-2
Chain of Bcl-2 (P10415 whole entry, species assumed): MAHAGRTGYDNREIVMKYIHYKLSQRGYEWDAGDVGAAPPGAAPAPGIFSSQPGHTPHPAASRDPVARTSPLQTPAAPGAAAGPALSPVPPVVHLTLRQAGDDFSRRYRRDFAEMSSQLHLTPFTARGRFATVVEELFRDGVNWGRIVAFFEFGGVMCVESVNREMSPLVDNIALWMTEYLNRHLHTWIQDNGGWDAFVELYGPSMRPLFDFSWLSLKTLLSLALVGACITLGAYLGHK

MV4-11 = experiment: Cellular activity against leukemia human tumor cell lines: MV4-11; assay type: cell-based; settings: AML-derived cell line
Method: as §1

Bcl-xL = Bcl-xL (Homo sapiens, UniProt Q07817); experiment: Binding affinity against Bcl-2 family anti-apoptotic proteins: Bcl-xL
Chain of Bcl-xL (Q07817 whole entry, species assumed): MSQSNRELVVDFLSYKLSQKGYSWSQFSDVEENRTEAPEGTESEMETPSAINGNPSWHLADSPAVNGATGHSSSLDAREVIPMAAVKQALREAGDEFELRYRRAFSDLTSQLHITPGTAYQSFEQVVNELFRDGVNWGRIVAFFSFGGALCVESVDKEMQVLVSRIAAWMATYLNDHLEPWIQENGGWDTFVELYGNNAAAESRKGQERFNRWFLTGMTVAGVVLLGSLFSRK

Mcl-1 [4] = biological target: T1, Mcl-1; experiment: Binding affinity against Bcl-2 family anti-apoptotic proteins: Mcl-1
K562 = experiment: Cellular activity against leukemia human tumor cell lines: K562; assay type: cell-based; settings: human CML-derived cell line
Method: as §1

HL-60 cell line = experiment: Induction of apoptosis in HL-60, flow cytometry with Annexin V and propidium iodide double staining; caspase-3 activation; assay type: cell-based, human
Excerpt: To gain insights into the underlying mechanism of action for the cell growth inhibition of this class Mcl-1 inhibitors, the HL-60 cell line was selected and investigated if apoptosis contributes to the antiproliferative effect. Induction of apoptosis was monitored by flow cytometry using Annexin V and propidium iodide double staining.

MEF WT cells = experiment: Cell death in wild-type MEF cells; assay type: cell-based, mouse
Method: (§2) It is known that apoptotic effectors Bak and Bax can be suppressed by multidomain anti-apoptotic proteins such as Mcl-1. To interrogate the mechanism of action, the activity of several novel Mcl-1 inhibitors were evaluated in mouse embryonic fibroblast (MEF) cells that included wild-type (WT) as well as cells deficient in Bax/Bak (DKO).

MEF DKO cells = experiment: Cell death in Bax/Bak deficient (DKO) MEF cells; assay type: cell-based, mouse
Method: as §2

T1 sequence (Q07820 whole entry, species assumed): as the sequence (Q07820 whole entry) above

EC50 (HL-60) [µM] | Ki (Bcl-w) [µM] | Ki (A1) [µM] | Ki (Bcl-2) [µM] | EC50 (MV4-11) [µM] | Ki (Bcl-xL) [µM] | Ki (Mcl-1 [4]) [µM] | EC50 (K562) [µM] | SMILES | further results
 |  |  |  |  |  |  |  | CN(C)CC[C@H](CSc1ccccc1)Nc1ccc(S(=O)(=O)NC(=O)c2ccc(N3CCN(Cc4ccccc4-c4ccc(Cl)cc4)CC3)cc2)cc1[N+](=O)[O-] [ABT-737] | binding to Mcl-1 (Mcl-1 [1]): fails to bind
 |  |  |  |  |  |  |  | CCOC(=O)c1c(C)oc2c1c(C(c1ccc(F)cc1)N1CCN(C)CC1)c(O)c1ccccc12 (stereo not drawn) [UMI-118] | IC50 (Mcl-1 [2]): 0.19 µM; fold decrease of binding affinity to Mcl-1 (Mcl-1 [2]): 3 fold
 |  |  |  |  |  |  |  | CCOC(=O)c1c(C)oc2c1c(C(c1cccc(F)c1)N1CCN(C)CC1)c(O)c1ccccc12 (stereo not drawn) [UMI-1003] | IC50 (Mcl-1 [2]): 0.2 µM
16 | > 30 | > 25 | > 30 | 12.8 | > 30 | 0.02 |  | CCOC(=O)c1c(C)oc2c1c(C(c1ccncc1)N1CCOCC1)c(O)c1ccccc12 (stereo not drawn) [UMI-1007] | disruption of the interactions between BL-Noxa and cellular Mcl-1 [3]: effectively disrupted the interactions between BL-Noxa and cellular Mcl-1
 |  |  |  |  |  |  |  | CCOC(=O)c1c(C)oc2c1c(C(c1ccncc1)N1CCN(CC)CC1)c(O)c1ccccc12 (stereo not drawn) [UMI-1008] | binding / inhibition of Mcl-1 compared with UMI-1033, in words (Mcl-1 [2]): kept same
3.98 | > 30 | > 25 | > 30 | 7.15 | > 30 | 0.015 | > 30 | CCOC(=O)c1c(C)oc2c1c(C(c1ccncc1)N1CCN(C(C)C)CC1)c(O)c1ccccc12 (stereo not drawn) [UMI-1009] | binding / inhibition of Mcl-1 compared with UMI-1033, in words (Mcl-1 [2]): kept same; caspase-3 activation (HL-60 cell line; HL-60): activation of caspase-3; induction of apoptosis (HL-60 cell line; HL-60, 5 μM): 37%; induction of apoptosis (HL-60 cell line; HL-60, 10 μM): 57%
 |  |  |  |  |  |  |  | CCOC(=O)c1c(C)oc2c1c(C(c1ccncc1)N1CCc3ccccc3C1)c(O)c1ccccc12 (stereo not drawn) [UMI-1011] | IC50 (Mcl-1 [2]): 0.19 µM; fold decrease of binding affinity to Mcl-1 (Mcl-1 [2]): 3 fold
 | > 30 | > 25 | > 30 |  | > 30 | 0.03 |  | CCOC(=O)c1c(C)oc2c1c(C(c1ccnc(Cl)c1)N1CCOCC1)c(O)c1ccccc12 (stereo not drawn) [UMI-1026] | 
11.3 | > 30 | > 25 | 16.7 | 7.05 | > 30 | 0.02 | > 30 | CCOC(=O)c1c(C)oc2c1c(C(c1ccncc1)N1CCN(C)CC1)c(O)c1ccccc12 (stereo not drawn) [UMI-1033] | 
 | 28 | > 25 | 13.8 |  | > 30 | 0.015 |  | COC(=O)c1c(C)oc2c1c(C(c1ccncc1)N1CCN(C)CC1)c(O)c1ccccc12 (stereo not drawn) [UMI-1035] | cell death in MEF WT (MEF WT cells): induced cell death; EC50 (HL-60; Homo sapiens, HL-60): 12.3 µM; EC50 (K562; K562): 24.6 µM; EC50 (MV4-11; Homo sapiens, MV4-11): 6.16 µM; cell death in MEF DKO (MEF DKO cells): not in MEF DKO cells
14.7 |  |  |  | 10.1 |  |  | > 30 | CCOC(=O)CN1CCN(C(c2ccncc2)c2c(O)c3ccccc3c3oc(C)c(C(=O)OCC)c23)CC1 (stereo not drawn) [UMI-1042] | cell death in MEF WT (MEF WT cells): induced cell death; cell death in MEF DKO (MEF DKO cells): not in MEF DKO cells

SMILES | EC50 (HL-60) [µM] | Ki (Bcl-w) [µM] | Ki (A1) [µM] | Ki (Bcl-2) [µM] | EC50 (MV4-11) [µM] | Ki (Bcl-xL) [µM] | Ki (Mcl-1 [4]) [µM] | EC50 (K562) [µM] | further results
COC(=O)c1c(C)oc2c1c(C(c1ccncc1)N1CCOCC1)c(O)c1ccccc12 (stereo not drawn) [UMI-1036] | 16.2 |  |  |  | 8.22 |  |  | > 30 | cell death in MEF WT (MEF WT cells): induced cell death; cell death in MEF DKO (MEF DKO cells): not in MEF DKO cells
